Data published in PubChem BioAssay AID296 (DTP/NCI, 2004).
Several values for one entry are separate records, joined by “and”; a condition that tells them apart may be missing. Equal values may be shown once. Inconclusive results are not listed.

Tested on: MX-1 breast xenograft, nude mice, tumor weight T/C
Assay: NCI In Vivo Anticancer Drug Screen. Data for tumor model Human Mammary Carcinoma MX-1 Xenograft (intrarenal inoculation) in NU/NU Swiss (nude) mice
Settings: endpoint: mean tumor weight change, higher = larger tumour
Method in brief: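 Antitumour effect measured in vivo against vehicle controls, expressed as T/C.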

Compound: BrC[P+](CBr)(CBr)CBr
- T/C (dose: 100.0 mg/kg/injection, schedule: Q04DX003 (sc), vehicle: saline with Tween-80): 105 % of control
- T/C (dose: 200.0 mg/kg/injection, schedule: Q04DX003 (sc), vehicle: saline with Tween-80): 117 % of control
- T/C (dose: 400.0 mg/kg/injection, schedule: Q04DX003 (sc), vehicle: saline with Tween-80): 111 % of control

Compound: CCC1(O)CC2CN(CCc3c([nH]c4ccccc34)C(C(=O)OC)(c3cc4c(cc3OC)N(C)C3C(O)(C(N)=O)C(O)C5(CC)C=CCN6CCC43C65)C2)C1 (stereo not given) (tested in a mixture with another compound)
- T/C (dose: 0.75 mg/kg/injection, schedule: Q04DX003 (sc), vehicle: water): 27 % of control
- T/C (dose: 1.5 mg/kg/injection, schedule: Q04DX003 (sc), vehicle: water): 1 % of control
- T/C (dose: 6.0 mg/kg/injection, schedule: Q04DX003 (sc), vehicle: water): -44 % of control

Compound: COc1c(C=O)c2c(c(OC)c1OC)-c1ccc(OC)c(=O)cc1[C@@H](NC(C)=O)CC2
- T/C (dose: 18.75 mg/kg/injection, schedule: Q04DX003 (sc), vehicle: Klucel (hydroxypropylcellulose) (HPC)): 20 % of control
- T/C (dose: 37.5 mg/kg/injection, schedule: Q04DX003 (sc), vehicle: Klucel (hydroxypropylcellulose) (HPC)): 11 % of control

Compound: CC1=C2CC(C)(C)/C=C\C(=O)/C(C)=C\C3=C[C@H](C)C[C@]3(O2)C1=O
- T/C (dose: 12.5 mg/kg/injection, schedule: Q04DX003 (sc), vehicle: Klucel (hydroxypropylcellulose) (HPC)): 84 % of control
- T/C (dose: 25.0 mg/kg/injection, schedule: Q04DX003 (sc), vehicle: Klucel (hydroxypropylcellulose) (HPC)): 100 % of control
- T/C (dose: 50.0 mg/kg/injection, schedule: Q04DX003 (sc), vehicle: Klucel (hydroxypropylcellulose) (HPC)): 82 % of control

Compound: C/C=C/c1cc2n(c1)C(=O)c1cc(OC3OC(C)C(NC)C(C)(O)C3O)c(C)c(O)c1NC2O (stereo not given)
- T/C (dose: 100.0 micrograms/kg/injection, schedule: Q04DX003 (sc), vehicle: saline): 182 % of control
- T/C (dose: 200.0 micrograms/kg/injection, schedule: Q04DX003 (sc), vehicle: saline): 22 % of control
- T/C (dose: 400.0 micrograms/kg/injection, schedule: Q04DX003 (sc), vehicle: saline): 91 % of control

Compound: O=c1c(O)c(-c2cc(O)c(O)c(O)c2)oc2cc(O)cc(O)c12
- T/C (dose: 3.0 mg/kg/injection, schedule: Q04DX003 (sc), vehicle: saline with Tween-80): 117 % of control
- T/C (dose: 6.0 mg/kg/injection, schedule: Q04DX003 (sc), vehicle: saline with Tween-80): 97 % of control
- T/C (dose: 12.0 mg/kg/injection, schedule: Q04DX003 (sc), vehicle: saline with Tween-80): 108 % of control
- T/C (dose: 24.0 mg/kg/injection, schedule: Q04DX003 (sc), vehicle: saline with Tween-80): 81 % of control

Compound: OCCN1CCN(CC/C=C2/c3ccccc3Sc3ccc(Cl)cc32)CC1
- T/C (dose: 12.5 mg/kg/injection, schedule: Q04DX003 (sc), vehicle: saline): 115 % of control
- T/C (dose: 25.0 mg/kg/injection, schedule: Q04DX003 (sc), vehicle: saline): 47 % of control
- T/C (dose: 50.0 mg/kg/injection, schedule: Q04DX003 (sc), vehicle: saline): 44 % of control and 51 % of control

Compound: CC1=CC(C)(C)Nc2ccc(CSc3ccccc3)cc21
- T/C (dose: 25.0 mg/kg/injection, schedule: Q01DX010 (sc), vehicle: saline + Tween-80 + alcohol): 85 % of control
- T/C (dose: 50.0 mg/kg/injection, schedule: Q01DX010 (sc), vehicle: saline + Tween-80 + alcohol): 153 % of control
- T/C (dose: 100.0 mg/kg/injection, schedule: Q01DX010 (sc), vehicle: saline + Tween-80 + alcohol): 79 % of control and 102 % of control
- T/C (dose: 200.0 mg/kg/injection, schedule: Q01DX010 (sc), vehicle: saline + Tween-80 + alcohol): 89 % of control

Compound: NC(=O)/C=C/C(=O)c1c(Cl)cccc1Cl
- T/C (dose: 9.0 mg/kg/injection, schedule: Q04DX003 (sc), vehicle: saline with Tween-80): 78 % of control
- T/C (dose: 36.0 mg/kg/injection, schedule: Q04DX003 (sc), vehicle: saline with Tween-80): 43 % of control

Compound: [CH3][Sn]([CH3])([Cl])[c]1cc[c]([Sn]([CH3])([CH3])[Cl])cc1
- T/C (dose: 1.25 mg/kg/injection, schedule: Q04DX003 (ip), vehicle: saline): 98 % of control
- T/C (dose: 2.5 mg/kg/injection, schedule: Q04DX003 (ip), vehicle: saline): 101 % of control
- T/C (dose: 5.0 mg/kg/injection, schedule: Q04DX003 (ip), vehicle: saline): 89 % of control

Compound: CC[C@@H](C)[C@@H]1NC(=O)C(NC(=O)C(CC(C)C)N(C)C(=O)C2CCCN2C(=O)C(C)O)C(C)OC(=O)C(Cc2ccc(OC)cc2)N(C)C(=O)C2CCCN2C(=O)C(CC(C)C)NC(=O)C(C)C(=O)C(C(C)C)OC(=O)C[C@H]1O (stereo not given in full)
- T/C (dose: 300.0 micrograms/kg/injection, schedule: Q04DX003 (sc), vehicle: distilled water + alcohol): 91 % of control
- T/C (dose: 600.0 micrograms/kg/injection, schedule: Q04DX003 (sc), vehicle: distilled water + alcohol): 157 % of control
- T/C (dose: 1200.0 micrograms/kg/injection, schedule: Q04DX003 (sc), vehicle: distilled water + alcohol): 27 % of control

Compound: NC(=O)c1[nH]nc(C2OC(CO)C(O)C2O)c1O (stereo not given)
- T/C (dose: 2.5 mg/kg/injection, schedule: Q04DX003 (sc), vehicle: saline): 111 % of control
- T/C (dose: 20.0 mg/kg/injection, schedule: Q04DX003 (sc), vehicle: saline): 68 % of control
